Measured values from PubChem BioAssay AID1259411 (Chemical Carcinogenesis Research Information System (CCRIS), 2018).
Active and inactive are the calls of the source. How the calls were made is not given here.

Test system: rodent carcinogenicity bioassays, tumor incidence
Assay: CCRIS carcinogenicity studies
Summary of the method: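 Archive of carcinogenicity, mutagenicity, tumor promotion and tumor inhibition results drawn from journals, NCI reports and other sources, expert-reviewed; covers 1985-2011 and is no longer updated.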

Structure (SMILES): CCc1cccc2c3c([nH]c12)C(CC)(CC(=O)O)OCC3 (stereo not given)
- carcinogen call (Species: MOUSE, Strain/Sex: CD-1/FEMALE, Route: ORAL, Dose: 0;3, 9, 15 MG/KG/D IN DIET FOR 78 WK (STUDY DURATION: 78 WK), Dose: 0;3, 9, 15 MG/KG/D IN DIET FOR 78 WK (STUDY DURATION: 78 WK)): inactive; negative
- carcinogen call (Species: MOUSE, Strain/Sex: CD-1/MALE, Route: ORAL, Dose: 0, 3, 9, 15 MG/KG/D IN DIET FOR 78 WK (STUDY DURATION: 78 WK), Dose: 0, 3, 9, 15 MG/KG/D IN DIET FOR 78 WK (STUDY DURATION: 78 WK)): inactive; negative
- carcinogen call (Species: RAT, Strain/Sex: STRAIN-CD/FEMALE, Route: ORAL, Dose: 0, 3, 9, 15 MG/KG/D IN DIET FOR 104 WK (STUDY DURATION: 104 WK), Dose: 0, 3, 9, 15 MG/KG/D IN DIET FOR 104 WK (STUDY DURATION: 104 WK)): inactive; negative
- carcinogen call (Species: RAT, Strain/Sex: STRAIN-CD/MALE, Route: ORAL, Dose: 0, 3, 9, 15 MG/KG/D IN DIET FOR 104 WK (STUDY DURATION: 104 WK), Dose: 0, 3, 9, 15 MG/KG/D IN DIET FOR 104 WK (STUDY DURATION: 104 WK)): inactive; negative

Structure (SMILES): NC(=O)Cc1c([O-])on[n+]1Cc1ccccc1
- carcinogen call (Species: MOUSE, Strain/Sex: DDD/FEMALE, Route: ORAL, Dose: 0, 0.002, 0.01, 0.02% IN DRINKING WATER FOR 12 MO (STUDY DURATION: 12 MO), Dose: 0, 0.002, 0.01, 0.02% IN DRINKING WATER FOR 12 MO (STUDY DURATION: 12 MO), Tumor Site: Type of Lesion: LIVER: HEPATOCELLULAR CARCINOMA): active; positive
- carcinogen call (Species: MOUSE, Strain/Sex: DDD/MALE, Route: ORAL, Dose: 0, 0.02% IN DRINKING WATER FOR 12 MO (STUDY DURATION: 12 MO)): inactive; negative
- carcinogen call (Species: RAT, Strain/Sex: DONRYU/FEMALE, Route: ORAL, Dose: 0, 60, 200, 400 PPM IN DRINKING WATER FOR 41 WK (STUDY DURATION: 104 WK), Dose: 0, 60, 200, 400 PPM IN DRINKING WATER FOR 41 WK (STUDY DURATION: 104 WK), Tumor Site: Type of Lesion: LIVER: TUMOR): active; positive
- carcinogen call (Species: RAT, Strain/Sex: DONRYU/MALE, Route: ORAL, Dose: 0, 20 PPM IN DIET FOR 104 WK (STUDY DURATION: 104 WK)): inactive; negative
- carcinogen call (Species: RAT, Strain/Sex: DONRYU/MALE, Route: ORAL, Dose: 0, 60, 200 PPM IN DIET FOR 15 WK (STUDY DURATION: 104 WK), Dose: 0, 60, 200 PPM IN DIET FOR 15 WK (STUDY DURATION: 104 WK), Tumor Site: Type of Lesion: LIVER: TUMOR): active; positive
- carcinogen call (Species: RAT, Strain/Sex: DONRYU/MALE, Route: ORAL, Dose: 0, 60 PPM IN DRINKING WATER FOR 41 WK (STUDY DURATION: 104 WK), Tumor Site: Type of Lesion: LIVER: TUMOR): active; positive

Structure (SMILES): C=COC(N)=O
- carcinogen call (Species: MOUSE, Strain/Sex: B6C3F1/MALE, Route: INTRAPERITONEAL, Dose: 0, 2.5 UG/G BW IN 10 µL TRIOCTANOIN ONCE (STUDY DURATION: 9 MO), Tumor Site: Type of Lesion: LIVER: HEPATOMA): active; positive
- carcinogen call (Species: MOUSE, Strain/Sex: CD-1/FEMALE, Route: DERMAL, Dose: 0, 11.5 UMOL IN WEEKS 1 AND 2 THEN 5.7 UMOL IN WEEKS 3 AND 4 FOLLOWED BY 3.8 UMOL/WK FOR 28 WK (STUDY DURATION: 42 WK), Tumor Site: Type of Lesion: SKIN: PAPILLOMA, CARCINOMA): active; positive
- carcinogen call (Species: MOUSE, Strain/Sex: STRAIN-A/FEMALE, Route: INTRAPERITONEAL, Dose: 0, 34, 68 NMOL/G BW IN 5 µL TRIOCTANOIN ONCE (STUDY DURATION: 6 MO), Dose: 0, 34, 68 NMOL/G BW IN 5 µL TRIOCTANOIN ONCE (STUDY DURATION: 6 MO), Tumor Site: Type of Lesion: LUNG: ADENOMA): active; positive
- carcinogen call (Species: RAT, Strain/Sex: SPRAGUE-DAWLEY/FEMALE, Route: INTRAMUSCULAR, Dose: 0, 1.15, 2.3 UMOL IN 0.25 ML TRIOCTANOIN 1/WK FOR 10 WK (STUDY DURATION: 18 MO), Dose: 0, 1.15, 2.3 UMOL IN 0.25 ML TRIOCTANOIN 1/WK FOR 10 WK (STUDY DURATION: 18 MO)): inactive; negative

Structure (SMILES): CC(=O)Nc1ccc(O)cc1
- carcinogen call (Species: MOUSE, Strain/Sex: B6C3F1/FEMALE, Route: ORAL, Dose: 0, 600, 3000, 6000 PPM IN DIET FOR 103 WK (STUDY DURATION: 106 WK), Dose: 0, 600, 3000, 6000 PPM IN DIET FOR 103 WK (STUDY DURATION: 106 WK)): inactive; negative
- carcinogen call (Species: MOUSE, Strain/Sex: B6C3F1/MALE, Route: ORAL, Dose: 0, 600, 3000, 6000 PPM IN DIET FOR 103 WK (STUDY DURATION: 106 WK), Dose: 0, 600, 3000, 6000 PPM IN DIET FOR 103 WK (STUDY DURATION: 106 WK)): inactive; negative
- carcinogen call (Species: MOUSE, Strain/Sex: B6C3F1/MALE, Route: ORAL, Dose: 0, 5000, 10000 PPM IN DIET BEGINNING AT 6 WK OF AGE AND CONTINUING FOR 70 WK (STUDY DURATION: 72 WK), Dose: 0, 5000, 10000 PPM IN DIET BEGINNING AT 6 WK OF AGE AND CONTINUING FOR 70 WK (STUDY DURATION: 72 WK)): inactive; negative
- carcinogen call (Species: MOUSE, Strain/Sex: STRAIN-IF/FEMALE, Route: ORAL, Dose: 0, 0.5, 1% IN DIET FOR 18 MO (STUDY DURATION: 18 MO), Dose: 0, 0.5, 1% IN DIET FOR 18 MO (STUDY DURATION: 18 MO), Tumor Site: Type of Lesion: LIVER: HEPATOCELLULAR CARCINOMA OR ADENOMA): active; positive
- carcinogen call (Species: MOUSE, Strain/Sex: STRAIN-IF/MALE,FEMALE, Route: ORAL, Dose: 0.5, 1.0% IN DIET FOR 18 MO, Tumor Site: Type of Lesion: LIVER: HEPATOCELLULAR ADENOMA, CARCINOMA): active; positive
- carcinogen call (Species: MOUSE, Strain/Sex: STRAIN-IF/MALE, Route: ORAL, Dose: 0, 0.5, 1% IN DIET FOR 18 MO (STUDY DURATION: 18 MO), Dose: 0, 0.5, 1% IN DIET FOR 18 MO (STUDY DURATION: 18 MO), Tumor Site: Type of Lesion: LIVER: HEPATOCELLULAR CARCINOMA, HEPATOCELLULAR ADENOMA OR CARCINOMA): active; positive
- carcinogen call (Species: RAT, Strain/Sex: F344/FEMALE, Route: ORAL, Dose: 0, 0.65, 1.3% IN DIET FOR 104 WK (STUDY DURATION: 130 WK), Dose: 0, 0.65, 1.3% IN DIET FOR 104 WK (STUDY DURATION: 130 WK)): inactive; negative
- carcinogen call (Species: RAT, Strain/Sex: F344/FEMALE, Route: ORAL, Dose: 0, 600, 3000, 6000 PPM IN DIET FOR 103 WK (STUDY DURATION: 106 WK), Dose: 0, 600, 3000, 6000 PPM IN DIET FOR 103 WK (STUDY DURATION: 106 WK), Tumor Site: Type of Lesion: MULTIPLE ORGANS: MONONUCLEAR CELL LEUKEMIA): equivocal
- carcinogen call (Species: RAT, Strain/Sex: F344/MALE, Route: ORAL, Dose: 0, 0.45, 0.9% IN DIET FOR 104 WK (STUDY DURATION: 130 WK), Dose: 0, 0.45, 0.9% IN DIET FOR 104 WK (STUDY DURATION: 130 WK)): inactive; negative
- carcinogen call (Species: RAT, Strain/Sex: F344/MALE, Route: ORAL, Dose: 0, 600, 3000, 6000 PPM IN DIET FOR 103 WK (STUDY DURATION: 106 WK), Dose: 0, 600, 3000, 6000 PPM IN DIET FOR 103 WK (STUDY DURATION: 106 WK)): inactive; negative

Structure (SMILES): CC(C)OC(=O)Nc1cccc(Cl)c1
- carcinogen call (Species: Mouse, Strain/Sex: CD-1/Female (50/group), Route: Oral, Dose: 0, 100, 500, 1,000 mg/kg/day in diet for 18 mo, Dose: 0, 100, 500, 1,000 mg/kg/day in diet for 18 mo): inactive; negative (study details not given in source; purity 96.2%)
- carcinogen call (Species: Mouse, Strain/Sex: CD-1/Male (50/group), Route: Oral, Dose: 0, 100, 500, 1,000 mg/kg/day in diet for 18 mo, Dose: 0, 100, 500, 1,000 mg/kg/day in diet for 18 mo): inactive; negative (study details not given in source; purity 96.2%)
- carcinogen call (Species: Rat, Strain/Sex: Sprague-Dawley/Female (50/group), Route: Oral, Dose: 0, 30, 100, 500, 1,000 mg/kg/day in diet for 24 mo, Dose: 0, 30, 100, 500, 1,000 mg/kg/day in diet for 24 mo): inactive; negative (study details not given in source; purity 96.2%)
- carcinogen call (Species: Rat, Strain/Sex: Sprague-Dawley/Male (50/group), Route: Oral, Dose: 0, 30, 100, 500, 1,000 mg/kg/day in diet for 24 mo, Dose: 0, 30, 100, 500, 1,000 mg/kg/day in diet for 24 mo, Tumor Site: Type of Lesion: Testis: Interstitial cell tumors (1, 4, 2, 4, 9; Significant at highest dose)): active; positive (study details not given in source; purity 96.2%)

Structure (SMILES): O=c1[nH]c(=O)n([C@H]2C[C@H](O)[C@@H](CO)O2)cc1Br
- carcinogen call (Species: RAT, Strain/Sex: LIO/FEMALE, Route: SUBCUTANEOUS, Dose: 0, 3.2 MG ON DAY 1 OR ON DAYS 1 AND 3 OR ON DAYS 1, 3, 7, AND 21 FOLLOWING BIRTH FOR TOTAL DOSES OF 3.2, 6.4, OR 12.8 MG, Tumor Site: Type of Lesion: THYROID: ADENOMA, KIDNEY: MESENCHYMAL TUMORS): active; positive
- carcinogen call (Species: RAT, Strain/Sex: LIO/MALE, Route: SUBCUTANEOUS, Dose: 0, 3.2 MG ON DAY 1 OR ON DAYS 1 AND 3 OR ON DAYS 1, 3, 7, AND 21 FOLLOWING BIRTH FOR TOTAL DOSES OF 3.2, 6.4, OR 12.8 MG, Tumor Site: Type of Lesion: TESTES: LEYDIGOMA): active; positive
